In this data set the test system is mitochondrial DNA (HV2, CO2, ND1) of HepG2 cells. Put plainly: mtDNA mutational load in HepG2 cells grown 30 days with INH or INH+PFJ (multiplex LATE-PCR/Lights On-Lights Off assay). Format: cell-based, human. The settings on record: 88 μM INH, HepG2, 30 days. As to the method:
A liver carcinoma cell line (HepG2 cells, ATCC, Manassas, Va.) was grown for 30 days in the presence of either 88 μM INH (Sigma, St. Louis, Mo.) or 88 μM INH+50 μg/ml gallic acid equivalents (GAE) PFJ. A culture without these additives served as a non-treated control. Cells were grown in Eagle's Minimum Essential Medium (ATCC Manassas, Va.). The media were supplemented with 25 mM HEPES, 10% fetal bovine serum (BioWest), 50 units/mL Penicillin G, 50 units/mL Streptomycin, and 0.25 μg Amphotericin B (HyClone Antibiotic/Antimycotic Solution 100×) in 6-well plates at 37° C. and 5% CO2. The media and additives were replenished every other day. The cells were passaged as per ATCC's instructions at an initial density of 1×10^5 cells/ml.
At the end of the culture period, each HepG2 culture was tripsinized, spun at 100×g for 15 min at 4° C. and resuspended in Dulbecco's phosphate buffer solution (Sigma, St. Louis, Mo.) at a concentration of 1×10^3 cells/ml. DNA from these cultures was extracted by placing 5 μl of cell suspension into 32.5 μl volume of a lysis buffer containing 100 μg/ml proteinase K, 10 mM Tris-Cl pH 8.3, and 5 μM SDS (sodium-dodecyl-sulfate) and heating to 50° C. for 2 hours followed by 95° C. for 15 minutes. The samples were then stored at −20° C. […]

Consider `NNC(=O)c1ccncc1` [INH, isoniazid], for which the “mtDNA mutational load (fluorescent signature changes indicative of mitochondrial DNA mutations)” value is reported as “increases mtDNA mutational load”.

Values taken from US10813972B2, “Treatment of DNA damage and mitochondrial dysfunction using palm fruit juice” (BRANDEIS UNIVERSITY, priority 2013, dated 2020).
